Measurements published in publication PMC12030059, “Mechanistic Advances in the Therapeutic Application of Bixin for Lung Inflammation In Vitro and In Vivo” (Pharmaceuticals, 2025).
pEC50: −log10 of the molar value.

Tests used:
[1] = PAMPA-GIT permeability assay; assay type: in vitro ADME
Source text: The parallel artificial membrane permeability assay (PAMPA) utilizes a 96-well plate system in a “sandwich” format, where one plate is positioned above another (PAMPA). The upper plate, known as the donor compartment, contains the compounds (test or control) dissolved in a buffered solution. […] The lipid composition of the PVDF filter varies depending on the type of permeability test. For gastrointestinal tract (GIT) permeability assessments, L-α-soy phosphatidylcholine in dodecane is used. Optical density values are measured at specified wavelengths for each compound and compared against controls. For GIT permeability, the absorbed fraction (Fa%) and permeability (Pe) are determined. […] Compounds for these assays were diluted from a 10 mM stock solution. These assays were conducted using a 1 mg/mL stock solution per compound.

[2] = Rat liver microsomal stability in the absence of cofactors (NADPH generating system); assay type: in vitro ADME; details: rat liver microsomes without NADPH cofactors, 4 h, 50 μM, 37 °C
Procedure: A final solution of microsomes (1 mg/mL protein) in 250 μL of PBS at pH 7.4 containing 50 μM of bixin was prepared in the absence of an NADPH-regenerating metabolic cofactor system. The bixin was incubated with rat microsomes under these conditions for 0, 30, 60, 120, and 240 min with shaking in a water bath at 37 °C. The subsequent steps for protein precipitation, bixin extraction, and HPLC analysis were identical to those described for the rat plasma stability assay.

[3] = Solubility tests of the potassium salt; assay type: physicochemical
[4] = target: Nrf2/ARE axis; test: Luciferase ARE reporter assay; assay type: cell-based; details: RAW 264.7 transfected with ARE luciferase reporter, 0–200 μM; read-out: EC50 in activating the Nrf2/ARE axis
Procedure: RAW 264.7 cells (3.5 × 10^5 cells/well) were seeded into 24-well plates in FBS-free DMEM. Next day, cells were transfected with the ARE-responsive luciferase reporter kit (#60514, BPS Bioscience, San Diego, CA, USA) in Opti-MEM containing Lipofectamine 2000 and incubated for 24 h. After stimulation with different concentrations of potassium bixinate (0–200 μM), the luciferase-containing medium was collected and incubated with luciferin substrate (Dual Luciferase Assay System) (#60683-1, BPS Bioscience, San Diego, CA, USA) according to the manufacturer’s instructions. Luminescence emitted by luciferin cleavage was measured using the Varioskan LUX plate reader (ThermoFisher Scientific, Waltham, MA, USA).

Molecule: COC(=O)/C=C/C(C)=C\C=C\C(C)=C\C=C\C=C(C)\C=C\C=C(C)\C=C\C(=O)O [HBx, (2E,4E,6E,8E,10E,12E,14E,16Z,18E)-20-methoxy-4,8,13,17-tetramethyl-20-oxoicosa-2,4,6,8,10,12,14,16,18-nonaenoic acid]
- Papp ([1]; L-α-soy phosphatidylcholine in dodecane, read-out: Experimental Pe): 0.36 ×10⁻⁶ cm/s
- Experimental Fa ([1]; absorbed fraction): 12.79%
- initial concentration maintained in microsomes [2]: ~100%

Molecule: potassium bixinate [KBx]
- aqueous solubility relative to bixin [3]: significant increase in the aqueous solubility
- pEC50 [4]: 4.34
